Experimental data: PMC3490914, “The Nonantibiotic Small Molecule Cyslabdan Enhances the Potency of β-Lactams against MRSA by Inhibiting Pentaglycine Interpeptide Bridge Synthesis” (PLoS ONE, 2012)
pIC50: −log10 of the molar value.

Tests used:
FemA (SAR1388) [1] = target: T1, FemA (SAR1388) (Staphylococcus aureus, UniProt P0A0A5); experiment: pull-down of purified recombinant protein on biotinylcyslabdan-immobilized avidin beads, SDS-PAGE; also from MRSA lysate with LC-MS/MS; format: binding
T1 construct: recombinant, C-terminal hexahistidine tag

FemB = target: T2, FemB (Staphylococcus aureus, UniProt Q2FYR1); experiment: pull-down of purified recombinant protein on biotinylcyslabdan-immobilized avidin beads, SDS-PAGE (some background binding to beads alone)
T2 construct: recombinant, C-terminal hexahistidine tag

FemA (SAR1388) [2] = target: T1, FemA (SAR1388); experiment: in vitro glycyl transfer assay with purified FemA, monoglycyl lipid II and […]-glycine, TLC/phosphoimaging; supported by pull-down with biotinylcyslabdan; format: biochemical

Row | pIC50 (FemA (SAR1388) [2]) | SMILES | pull-down of purified recombinant protein on biotinylcyslabdan-immobilized avidi (FemA (SAR1388) [1]) | pull-down of purified recombinant protein on biotinylcyslabdan-immobilized avidi (FemB)
1 |  | C=C/C(C)=C/CC1C2(C)CCCC(C)(C)C2CC(O)C1(O)CSC[C@H](NC(C)=O)C(=O)NCCOCCOCCNC(=O)CCCCC1SC[C@@H]2NC(=O)N[C@H]12 (stereo partly drawn) [biotinylcyslabdan] | Purified recombinant SAR1388 protein was then added to avidin beads onto which biotinylcyslabdan had been immobilized. | FemB was bound to only avidin beads, while the binding amount of FemB increased in the presence of biotinylcyslabdan
2 | 3.28 | C=C/C(C)=C/C[C@@H]1[C@@]2(C)CCCC(C)(C)[C@@H]2C[C@H](O)[C@]1(O)CSC[C@H](NC(C)=O)C(=O)O [cyslabdan] |  | 
